The target in this assay is T1, Recombinant human cathepsin A (Homo sapiens, UniProt P10619).
T1 construct: Recombinant human cathepsin A (residues 29-480, with a C-terminal 10-His tag); 10-His (C); purchased R&D Systems 1049-SE
T1 sequence (P10619 29-326 limits assumed): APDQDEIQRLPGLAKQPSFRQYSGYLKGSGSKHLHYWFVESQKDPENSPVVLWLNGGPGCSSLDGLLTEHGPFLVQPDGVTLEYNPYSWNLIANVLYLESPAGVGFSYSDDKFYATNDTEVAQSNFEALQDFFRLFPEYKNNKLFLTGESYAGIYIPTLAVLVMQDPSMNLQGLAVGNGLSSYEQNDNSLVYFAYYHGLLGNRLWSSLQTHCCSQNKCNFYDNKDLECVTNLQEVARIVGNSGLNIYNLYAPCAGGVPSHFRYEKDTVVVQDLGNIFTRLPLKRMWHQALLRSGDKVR
T1 sequence (P10619 327-480 limits assumed): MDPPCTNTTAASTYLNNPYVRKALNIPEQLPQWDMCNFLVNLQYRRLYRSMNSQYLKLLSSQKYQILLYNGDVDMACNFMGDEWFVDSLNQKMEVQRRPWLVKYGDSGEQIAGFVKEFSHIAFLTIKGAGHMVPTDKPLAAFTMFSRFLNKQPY
In words: Cathepsin A inhibitory activity. It counts as biochemical. The settings on record: activated recombinant human cathepsin A 833 ng/ml, Bodipy FL-labeled bradykinin 2 μM, pH 5.5, 15 min room temperature. As to the method: a) Cathepsin a Inhibitory Activity
Recombinant human cathepsin A (residues 29-480, with a C-terminal 10-His tag; R&D Systems, #1049-SE) was proteolytically activated with recombinant human cathepsin L (R&D Systems, #952-CY). Briefly, cathepsin A was incubated at 10 μg/ml with cathepsin L at 1 μg/ml in activation buffer (25 mM 2-(morpholin-4-yl)-ethanesulfonic acid (MES), pH 6.0, containing 5 mM dithiothreitol (DTT)) for 15 min at 37° C. Cathepsin L activity was then stopped by the addition of the cysteine protease inhibitor E-64 (N-(trans-epoxysuccinyl)-L-leucine-4-guanidinobutylamide; Sigma-Aldrich, #E3132; dissolved in activation buffer/DMSO) to a final concentration of 10 μM.
The activated cathepsin A was diluted in assay buffer (25 mM MES, pH 5.5, containing 5 mM DTT) and mixed with the test compound (dissolved in assay buffer containing (v/v) 3% DMSO) or, in the control experiments, with the vehicle in a multiple assay plate. After incubation for 15 min at room temperature, as substrate then bradykinin carrying an N-Terminal®Bodipy FL (4,4-difluoro-5,7-dimethyl-4-bora-3a,4a-diaza-s-indacene-3-propionyl) label (JPT Peptide Technologies GmbH; dissolved in assay buffer) was added to the mixture. The final concentration of cathepsin A was 833 ng/ml and the final concentration of labeled bradykinin 2 μM. After incubation for 15 min at room temperature the reaction was stopped by the addition of stop buffer (130 mM 2-(4-(2-hydroxy-ethyl)-piperazin-1-yl)-ethanesulfonic acid, pH 7.4, containing (v/v) 0.013%®Triton X-100, 0.13% Coating Reagent 3 (Caliper Life Sciences), 6.5% DMSO and 20 μM ebelactone B (Sigma, #E0886)).
Uncleaved substrate and product were then separated by a microfluidic capillary electrophoresis on a LabChip® 3000 Drug Discovery System (12-Sipper-Chip; Caliper Life Sciences) and quantified by determination of the respective peak areas. Substrate turnover was calculated by dividing product peak area by the sum of substrate and product peak areas, and the enzyme activity and the inhibitory effect of the test compound thus quantified. From the percentage of inhibition of cathepsin A activity observed with the test compound at several concentrations, the inhibitory concentration IC50, i.e. the concentration which effects 50% inhibition of enzyme activity was, calculated.

A word on the IC50: it is the concentration at which inhibition is half-maximal. As to `Cc1ccccc1[C@H](CC(=O)O)NC(=O)c1cc(NS(C)(=O)=O)n(-c2ccccc2)n1` [Example 11, (S)-3-[(5-Methanesulfonylamino-1-phenyl-1H-pyrazole-3-carbonyl)-amino]-3-o-tolyl-propionic acid], the IC50 amounted to 25.2 nM.

Regarding `Nc1cc(C(=O)NC(CC(=O)O)c2ccc(-c3ccccn3)cc2)nn1-c1ccccc1F` (stereo not drawn) [Example 7, 3-{[5-Amino-1-(2-fluoro-phenyl)-1H-pyrazole-3-carbonyl]-amino}-3-(4-pyridin-2-yl-phenyl)-propionic acid], the concentration for half-maximal inhibition (IC50) stood at 20.4 nM.

Regarding `Cc1ccccc1[C@H](CC(=O)O)NC(=O)c1cc(N(C)C(=O)c2ccccc2)n(-c2ccccc2)n1` [Example 63, (S)-3-{[5-(Benzoyl-methyl-amino)-1-phenyl-1H-pyrazole-3-carbonyl]-amino}-3-o-tolyl-propionic acid], the 50% inhibitory concentration (IC50) was 57.2 nM.

With `O=C(O)CC(NC(=O)c1cc2[nH]c3ccccc3n2n1)c1cc(F)ccc1F` (stereo not drawn) [Example 33, 3-[(4H-Benzo[4,5]imidazo[1,2-b]pyrazole-2-carbonyl)-amino]-3-(2,5-difluoro-phenyl)-propionic acid], the IC50 amounted to 2670 nM.

Consider `O=C(O)C[C@H](NC(=O)c1cc2[nH]c3ccccc3n2n1)c1ccccc1F` [Example 40, (S)-3-[(4H-Benzo[4,5]imidazo[1,2-b]pyrazole-2-carbonyl)-amino]-3-(2-fluoro-phenyl)-propionic acid], for which the half-maximal inhibitory concentration (IC50) was 1170 nM.

In the case of `Cc1ccccc1[C@H](CC(=O)O)NC(=O)c1cc(N(C)CC(O)C(C)(C)C)n(-c2ccccc2)n1` (stereo partly drawn) [Example 65, (S)-3-({5-[(2-Hydroxy-3,3-dimethyl-butyl)-methyl-amino]-1-phenyl-1H-pyrazole-3-carbonyl}-amino)-3-o-tolyl-propionic acid], the IC50 worked out at 78.3 nM.

For `O=C(O)CC(NC(=O)c1cc2[nH]c3ccccc3n2n1)c1ccc(F)c(F)c1` (stereo not drawn) [Example 20, 3-[(4H-Benzo[4,5]imidazo[1,2-b]pyrazole-2-carbonyl)-amino]-3-(3,4-difluoro-phenyl)-propionic acid], the half-maximal inhibitory concentration (IC50) is 3280 nM.

On to `Cc1ccccc1[C@H](CC(=O)O)NC(=O)c1cc(N2CCCC2)n(-c2ccccc2F)n1` [Example 13, (S)-3-{[1-(2-Fluoro-phenyl)-5-pyrrolidin-1-yl-1H-pyrazole-3-carbonyl]-amino}-3-o-tolyl-propionic acid], for which the IC50 was found to be 8.4 nM.

For the compound `Cc1ccc([C@H](CC(=O)O)NC(=O)c2cc(NC(=O)c3ccccc3)n(-c3ccccc3)n2)c(C)c1` [Example 79, (S)-3-[(5-Benzoylamino-1-phenyl-1H-pyrazole-3-carbonyl)-amino]-3-(2,4-dimethyl-phenyl)-propionic acid], the IC50 was determined as 108 nM.

Take `CN(C(=O)c1ccccc1)c1cc(C(=O)N[C@@H](CC(=O)O)c2ccc(Cl)cc2Cl)nn1-c1ccccc1` [Example 64, (S)-3-{[5-(Benzoyl-methyl-amino)-1-phenyl-1H-pyrazole-3-carbonyl]-amino}-3-(2,4-dichloro-phenyl)-propionic acid]: the IC50 was determined as 64.7 nM.

Turning to `O=C(Nc1cc(C(=O)NCC(C(=O)O)c2ccccc2)nn1-c1ccccc1)c1ccccc1` (stereo not drawn) [Example 82, 3-[(5-Benzoylamino-1-phenyl-1H-pyrazole-3-carbonyl)-amino]-2-phenyl-propionic acid], the half-inhibitory concentration (IC50) came out at 4870 nM.

Regarding `O=C(O)CC(NC(=O)c1cc2[nH]c3ccccc3n2n1)c1cc(F)ccc1Cl` (stereo not drawn) [Example 32, 3-[(4H-Benzo[4,5]imidazo[1,2-b]pyrazole-2-carbonyl)-amino]-3-(2-chloro-5-fluoro-phenyl)-propionic acid], the IC50 was determined as 664 nM.

`O=C(O)CC(NC(=O)c1cc2[nH]c3ccccc3n2n1)c1ccccc1F` (stereo not drawn) [Example 24, 3-[(4H-Benzo[4,5]imidazo[1,2-b]pyrazole-2-carbonyl)-amino]-3-(2-fluoro-phenyl)-propionic acid]: the half-maximal inhibitory concentration (IC50) worked out at 1750 nM.

Turning to `Cc1cccc([C@H](CC(=O)O)NC(=O)c2cc3[nH]c4ccccc4n3n2)c1` [Example 39, (S)-3-[(4H-Benzo[4,5]imidazo[1,2-b]pyrazole-2-carbonyl)-amino]-3-m-tolyl-propionic acid], the IC50 turned out to be 940 nM.

Regarding `Cc1ccccc1[C@H](CC(=O)O)NC(=O)c1cc(N2CCCC2=O)n(-c2ccccc2F)n1` [Example 14, (S)-3-{[1-(2-Fluoro-phenyl)-5-(2-oxo-pyrrolidin-1-yl)-1H-pyrazole-3-carbonyl]-amino}-3-o-tolyl-propionic acid], the concentration for half-maximal inhibition (IC50) stood at 25.8 nM.

Turning to `O=C(O)C[C@H](NC(=O)c1cc2[nH]c3ccccc3n2n1)c1ccccc1` [Example 41, (S)-3-[(4H-Benzo[4,5]imidazo[1,2-b]pyrazole-2-carbonyl)-amino]-3-phenyl-propionic acid], the IC50 was determined as 1230 nM.

As for `O=C(O)CC(NC(=O)c1cc2[nH]c3ccccc3n2n1)c1cccc(Oc2ccccc2)c1` (stereo not drawn) [Example 26, 3-[(4H-Benzo[4,5]imidazo[1,2-b]pyrazole-2-carbonyl)-amino]-3-(3-phenoxy-phenyl)-propionic acid], the half-maximal inhibitory concentration (IC50) is 2610 nM.

`Cc1ccccc1C(CC(=O)O)NC(=O)c1cc2[nH]c3ccccc3n2n1` (stereo not drawn) [Example 35, 3-[(4H-Benzo[4,5]imidazo[1,2-b]pyrazole-2-carbonyl)-amino]-3-o-tolyl-propionic acid]: the IC50 was 900 nM.

On to `Cc1ccccc1[C@H](CC(=O)O)NC(=O)c1cc(NC(=O)C(C)(C)C)n(-c2ccccc2)n1` [Example 52, (S)-3-{[5-(2,2-Dimethyl-propionylamino)-1-phenyl-1H-pyrazole-3-carbonyl]-amino}-3-o-tolyl-propionic acid], for which the half-inhibitory concentration (IC50) amounted to 28.6 nM.

Take `Cc1ccccc1[C@H](CC(=O)O)NC(=O)c1cc(NC(=O)Nc2ccccc2)n(-c2ccccc2)n1` [Example 10, (S)-3-{[1-Phenyl-5-(3-phenyl-ureido)-1H-pyrazole-3-carbonyl]-amino}-3-o-tolyl-propionic acid]: the IC50 amounted to 14 nM.

Regarding `Cc1ccccc1[C@H](CC(=O)O)NC(=O)c1cc(N)n(-c2ccccc2F)n1` [Example 3, (S)-3-{[5-Amino-1-(2-fluoro-phenyl)-1H-pyrazole-3-carbonyl]-amino}-3-o-tolyl-propionic acid], the IC50 stood at 13.8 nM.

As for `O=C(O)CC(NC(=O)c1cc2[nH]c3ccccc3n2n1)c1ccc(F)cc1` (stereo not drawn) [Example 34, 3-[(4H-Benzo[4,5]imidazo[1,2-b]pyrazole-2-carbonyl)-amino]-3-(4-fluoro-phenyl)-propionic acid], the IC50 was found to be 2520 nM.

On to `Cc1ccccc1[C@H](CC(=O)O)NC(=O)c1cc(N2CCCCC2=O)n(-c2ccccc2)n1` [Example 17, (S)-3-{[5-(2-Oxo-piperidin-1-yl)-1-phenyl-1H-pyrazole-3-carbonyl]-amino}-3-o-tolyl-propionic acid], for which the IC50 was 64.5 nM.

On to `Cc1ccccc1[C@H](CC(=O)O)NC(=O)c1cc(N)n(-c2ccccc2)n1` [Example 1, (S)-3-[(5-Amino-1-phenyl-1H-pyrazole-3-carbonyl)-amino]-3-o-tolyl-propionic acid], for which the IC50 amounted to 25.1 nM.

For `Cc1ccccc1[C@H](CC(=O)O)NC(=O)c1cc(NCC(C)(O)C(C)(C)C)n(-c2ccccc2)n1` (stereo partly drawn) [Example 58, (S)-3-{[5-(2-Hydroxy-2.3,3-trimethyl-butylamino)-1-phenyl-1H-pyrazole-3-carbonyl]-amino}-3-o-tolyl-propionic acid], the 50% inhibitory concentration (IC50) amounted to 38.5 nM.

`Cc1ccccc1[C@H](CC(=O)O)NC(=O)c1cc(NC(=O)C(c2ccccc2)c2ccccc2)n(-c2ccccc2)n1` [Example 69, (S)-3-[(5-Diphenylacetylamino-1-phenyl-1H-pyrazole-3-carbonyl)-amino]-3-o-tolyl-propionic acid]: the half-inhibitory concentration (IC50) was found to be 125 nM.

On to `O=C(O)CC(NC(=O)c1cc2[nH]c3ccccc3n2n1)c1cccc2c1OCO2` (stereo not drawn) [Example 22, 3-Benzo[1,3]dioxol-4-yl-3-[(4H-benzo[4,5]imidazo[1,2-b]pyrazole-2-carbonyl)-amino]-propionic acid], for which the 50% inhibitory concentration (IC50) turned out to be 1110 nM.
